Data on two molecules can be found in patent US12325708B2, “Adenosine 2 receptor antagonists” (Nektar Therapeutics, priority 2019, dated 2025).

≈ marks a conversion by molar mass, not a printed value. A value given as a limit tells only on which side of the number the result lay.

Data set [1] is described as follows: Plasma protein binding (PPB), dog. The data set is classed as in vitro ADME. The conditions noted are these: read-out: Plasma protein binding (PPB) (fu).
Data set [2] is described as follows: Hepatic clearance in vitro CLint, mouse liver microsomes. The format is in vitro ADME. (In general: Microsomes from liver hold many membrane-bound enzymes, among them those of drug oxidation.)
Data set [3] in a line: Plasma pharmacokinetic parameters of Compound 1 in mice. The data set is classed as in vivo. The conditions noted are these: mouse, PO 30 mg/kg. From the text:
(§1) Pharmacokinetic parameters were further estimated in vivo after IV or PO administration of Compound 1 in mice and dogs with the results provided in Table 4 below.

Data set [4] in a line: Permeability Caco-2 Papp and efflux ratio. The data set is classed as in vitro ADME. The following applies: human.
In data set [5] the test system is mouse CT-26 cells. The data set can be described thus: Antitumor activity in CT26 subcutaneous tumor model in Balb/c mice. The format is in vivo. The conditions noted are these: day 13 vs vehicle. The method, then:
Mice used were ˜ 6-8 week-old female Balb/c mice subcutaneously inoculated with 2×10^6 mouse CT-26 cells. […] The mice were divided into six treatment groups as follows: vehicle (qdx9) PO+IP, Compound 1 (10 mg/kg, qdx9)+an exemplary anti-mouse PD1 (CD279) antibody (BioXCell) (200 μg/mouse, q2dx4); Compound 1 (30 mg/kg, qdx9)+anti-PD1 antibody (200 μg/mouse, q2dx4), Compound 1 (100 mg/kg)+anti-PD1 antibody (200 μg/mouse, q2dx4), anti-PD1 antibody (200 μg/mouse, q2dx4), or preladenant (30 mg/kg, qdx9)+anti-PD1 antibody (200 μg/mouse, q2dx4). Compound 1 and preladenant were administered orally. The anti-PD1 antibody was administered IP. Body weight was measured daily. Tumor growth of the CT26 cells was monitored three times per week by measuring the tumor volume size using a caliper with the results shown in FIG. 5.

A short description of data set [6]: Plasma protein binding (PPB), mouse. The following applies: read-out: Plasma protein binding (PPB) (fu). The format is in vitro ADME.
Data set [7] can be described thus: Plasma pharmacokinetic parameters of Compound 1 in dogs. The data set is classed as in vivo. The conditions noted are these: dog.
Source text: as §1

The nature of data set [8]: Hepatic clearance in vitro CLint, human liver microsomes. The data set is classed as in vitro ADME.
Data set [9] can be described thus: Hepatic clearance in vitro CLint, rat liver microsomes. The format is in vitro ADME.
Data set [10] is described as follows: Plasma protein binding (PPB), rat. The format is in vitro ADME. The conditions noted are these: read-out: Plasma protein binding (PPB) (fu).
The nature of data set [11]: Hepatic clearance in vitro CLint, dog liver microsomes. The format is in vitro ADME.
Data set [12] in a line: Solubility. The format is physicochemical.
Data set [13] is described as follows: Plasma protein binding (PPB), human. The format is in vitro ADME. The conditions noted are these: read-out: Plasma protein binding (PPB) (fu).
The target of data set [14] is T1, A3 receptor (Homo sapiens, UniProt P0DMS8).
T1 construct: purchased
T1 sequence (P0DMS8 1-318): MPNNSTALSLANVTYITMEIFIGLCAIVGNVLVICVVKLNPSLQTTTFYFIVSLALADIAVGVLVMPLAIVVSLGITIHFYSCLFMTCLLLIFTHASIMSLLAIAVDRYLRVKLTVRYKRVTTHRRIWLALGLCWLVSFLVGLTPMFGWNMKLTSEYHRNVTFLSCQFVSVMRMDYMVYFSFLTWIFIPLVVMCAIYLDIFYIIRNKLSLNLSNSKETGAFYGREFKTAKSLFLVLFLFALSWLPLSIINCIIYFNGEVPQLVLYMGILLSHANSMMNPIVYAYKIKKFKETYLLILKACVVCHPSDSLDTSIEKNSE
The data set can be described thus: Radioligand receptor binding assay, A3 receptor. The conditions noted are these: cell membranes overexpressing A3 receptor, read-out: Potency Ki A3. The method, then:
Using conventional receptor binding assay techniques, Compounds 1-24 were assayed to determine binding activity at the A2A, A1, and A3 receptors with the results shown in Table 7.
Receptor binding affinity of Compounds 1-24 was measured using radioligand binding assays using commercially obtained cell membranes prepared from cell lines overexpressing the A2A, A1, or A3 receptors. Briefly, cell membrane preparations from cells expressing the specific receptor were mixed with the appropriate [^3H]-labeled tracer for the specific receptor and the test compound or a known inhibitor of receptor-ligand binding. Following 60 min incubation at room temperature to allow receptor-ligand complex formation, the complexes were collected by filtration, washed with 50 mM Tris HCl (pH 7.5) to remove radioligand that was not receptor-bound, and the remaining radioactivity determined by liquid scintillation counting. Specific radioligand binding was calculated for each test compound concentration and IC50 values were determined by non-linear, regression analysis. Inhibition constants (Ki) were calculated using the equation of Cheng and Prusoff using the observed IC50 of the tested compound, the concentration of radioligand employed in the assay and the experimentally determined values for the Kd of the ligand.

The target in data set [15] is T2, A1 receptor (Homo sapiens, UniProt P30542).
T2 construct: purchased
T2 sequence (P30542 1-326): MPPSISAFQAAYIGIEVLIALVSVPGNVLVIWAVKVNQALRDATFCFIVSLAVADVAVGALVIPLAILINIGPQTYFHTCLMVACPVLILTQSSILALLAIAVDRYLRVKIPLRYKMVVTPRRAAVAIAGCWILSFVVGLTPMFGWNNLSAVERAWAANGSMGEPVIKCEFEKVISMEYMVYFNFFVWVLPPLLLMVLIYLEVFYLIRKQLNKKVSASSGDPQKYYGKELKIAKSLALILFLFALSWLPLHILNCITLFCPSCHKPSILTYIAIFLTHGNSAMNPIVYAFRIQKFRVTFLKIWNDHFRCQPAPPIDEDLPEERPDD
The data set can be described thus: Radioligand receptor binding assay, A1 receptor. The conditions noted are these: cell membranes overexpressing A1 receptor, read-out: Potency Ki A1. The procedure, abridged: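 Membranes from cell lines overexpressing human A2A, A1 or A3 receptors were incubated 60 min at room temperature with the receptor-appropriate [3H] tracer. After filtration and washing in 50 mM Tris HCl pH 7.5, bound label was counted by scintillation. IC50 came from nonlinear regression and Ki from the Cheng-Prusoff equation.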

Turning to `COCCOc1ccc(N2CCN(CCN(C)c3cc4nc(-c5ncco5)nn4c(N)n3)CC2)cc1` [Compound 1, N^7-(2-{4-[4-(2-methoxyethoxy)phenyl]piperazin-1-yl}ethyl)-N^7-methyl-2-(1,3-oxazol-2-yl)[1,2,4]triazolo[1,5-c]pyrimidine-5,7-diamine], the fraction unbound in data set [1] stood at 0.43; in [6], 0.19; in data set [10] it was 0.15; in data set [13], 0.39. Moreover, the microsomal CLint – broadly, a measure of how fast metabolising enzymes remove a compound, apart from limits set by blood flow – is 29 µL/min/mg in data set [2], 43 µL/min/mg in data set [8], 17 µL/min/mg in data set [9] and < 1 µL/min/mg in data set [11]. The AUC(0-inf) (usually total exposure, with the tail of the curve extrapolated) in [3] came out at 5760 ng·h/mL; in [7] (plasma, PO 1 mg/kg), 2020 ng·h/mL; in data set [7] (plasma, PO 10 mg/kg), 17900 ng·h/mL. Further, in [4], the Papp (in general, the rate of passage across a membrane or cell layer, normalised by area and donor concentration) amounted to 14.5 ×10⁻⁶ cm/s. The efflux ratio in [4] (read-out: Efflux Ratio (ER)) was determined as 1.6. Besides, the “% TGI” value in data set [5] (10 mg/kg qdx9 PO + anti-PD1 antibody 200 μg/mouse q2dx4 IP) is recorded as 34%; in data set [5] (30 mg/kg qdx9 PO + anti-PD1 antibody 200 μg/mouse q2dx4 IP) it was 41^1%; in [5] (100 mg/kg PO + anti-PD1 antibody 200 μg/mouse q2dx4 IP), 47^2%. In [7] (PO 1&10 mg/kg vs IV 0.2 mg/kg), the F is given as >100%. Besides, the clearance (as a rule, the rate of elimination divided by the concentration) in data set [7] (plasma, IV 0.2 mg/kg) was 12 mL/min/kg. In addition, in [7] (plasma, IV 0.2 mg/kg), the half-life (as a rule, the time in which the quantity being followed falls by half) is 6 h. In addition, the Vd in [7] (plasma, IV 0.2 mg/kg, read-out: Vss) came to 5.2 L/kg. Further, the values for the solubility in [12] (pH ~3) and in data set [12] (pH ~7) were ~5000 µM (≈ 2470 µg/mL) and 20 to 40 µM (≈ 9.87 to 19.7 µg/mL), respectively. Moreover, the Ki (as a rule, a measure of affinity in units of concentration, obtained from inhibition or displacement) was > 10 µM in [14] and 50 µM in data set [15].

As to `COCCOc1cnc(N2CCN(CCN(C)c3cc4nc(-c5ncco5)nn4c(N)n3)CC2)c(F)c1` [Compound 4, N^7-(2-{4-[3-fluoro-5-(2-methoxyethoxy)pyridin-2-yl]piperazin-1-yl}ethyl)-N^7-methyl-2-(1,3-oxazol-2-yl)[1,2,4]triazolo[1,5-c]pyrimidine-5,7-diamine], the Ki in data set [15] amounted to 14 µM.
